Source: PMC4136671 (Journal of Medicinal Chemistry, 2014)
Blank lines part the entries; values can stand above or below the compound they belong to.

Legend:
T. cruzi CYP51 [1] = biological target: T1, T. cruzi CYP51 (Trypanosoma cruzi, UniProt Q7Z1V1); test: CYP51 spectral ligand binding assay; conditions: for time course of the amplitude of the type 2 spectral response: T. cruzi CYP51 1.0 μM, 0.2 μM ligand (enzyme in excess)
T. cruzi CYP51 [2] = biological target: T1, T. cruzi CYP51; test: CYP51 activity assay; type: biochemical; conditions: vs (R)-2; I/E=2, 1 h
Chagas disease = conditions: acute and chronic forms; cited from earlier work

T1 sequence (Q7Z1V1 whole entry): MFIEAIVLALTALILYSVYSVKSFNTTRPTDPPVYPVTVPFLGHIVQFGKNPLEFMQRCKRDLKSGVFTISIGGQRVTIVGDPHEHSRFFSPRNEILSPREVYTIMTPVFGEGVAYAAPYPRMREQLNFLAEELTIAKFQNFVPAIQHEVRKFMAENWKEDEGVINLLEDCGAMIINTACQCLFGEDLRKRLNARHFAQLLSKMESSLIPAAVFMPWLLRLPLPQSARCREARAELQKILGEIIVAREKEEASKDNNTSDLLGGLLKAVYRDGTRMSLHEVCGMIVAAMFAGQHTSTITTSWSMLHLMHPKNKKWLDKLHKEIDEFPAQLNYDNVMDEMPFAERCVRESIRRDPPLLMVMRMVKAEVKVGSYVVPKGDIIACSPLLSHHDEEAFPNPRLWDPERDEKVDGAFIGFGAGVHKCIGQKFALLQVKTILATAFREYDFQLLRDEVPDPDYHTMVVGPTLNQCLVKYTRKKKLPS

Structure (SMILES): CC(C)c1ccc(NC(=O)O[C@H](Cn2ccnc2)c2ccc(Cl)cc2)cc1 [(S)-2, 1-(4-chlorophenyl)-2-(1H-imidazol-1-yl)ethyl-4-isopropylphenylcarbamate]
apparent binding efficiency, fold higher than (R)-2 (T. cruzi CYP51 [1]; vs (R)-2): 2 fold
inhibitory effect on the substrate conversion, fold stronger than (R)-2 (T. cruzi CYP51 [2]): ~50 fold

time course of the amplitude of the type 2 spectral response (T. cruzi CYP51 [1]): very slow increase
Structure (SMILES): O=C(Nc1ccc(N2CCN(c3ccc(Cl)c(Cl)c3)CC2)cc1)OC(Cn1ccnc1)c1ccc(Cl)cc1Cl (centres unmarked) [Compound 6, 1-(2,4-dichlorophenyl)-2-(1H-imidazol-1-yl)ethyl 4-[4-(3,4-dichlorophenyl)piperazin-1-yl]phenylcarbamate]

Structure (SMILES): O=C(N[C@@H](Cn1ccnc1)c1ccc(Cl)cc1Cl)c1ccc(-c2nnc(-c3ccccc3)o2)cc1 [VNI, (R)-N-(1-(2,4-dichlorophenyl)-2-(1H-imidazol-1-yl)ethyl)-4-(5-phenyl-1,3,4-oxadiazol-2-yl)benzamide]
cure of Chagas disease in mice (Chagas disease): cure both the acute and chronic forms

time course of the amplitude of the type 2 spectral response (T. cruzi CYP51 [1]): somewhat similar pattern
Structure (SMILES): CC(=O)N1CCN(c2ccc(OCC3COC(Cn4ccnc4)(c4ccc(Cl)cc4Cl)O3)cc2)CC1 (centres unmarked) [ketoconazole, reference compound]
